Columns and labels:
[1] = test system: haloperidol-induced catalepsy; assay: Haloperidol-induced catalepsy, parallel bars test; assay type: in vivo, male Wistar rats; conditions: 1, 10, 20 mg/kg per os, haloperidol 1.5 mg/kg i.p.
Experimental: Neuroleptic-induced catalepsy has long been used as an animal model for screening drugs for parkinsonism, as described before. Adult male Wistar rats were divided into four groups, each containing six animals. Group 1 received haloperidol 1.5 mg/kg in normal saline and served as the cataleptic control without any drug treatment. The studied compound PA96 was dissolved in saline containing 0.5% Tween 80 just before use. Groups 2, 3, and 4 received PA-96 in a dose of 1, 10, or 20 mg/kg per os accordingly; 10 min after the PA96 administration, catalepsy was induced by the intraperitoneal administration of haloperidol in a dose of 1.5 mg/kg body weight in normal saline. All the behavioral studies were performed at room temperature in a calm room without external interference. The severity of catalepsy was measured 30, 60, 120, 180, and 240 min after haloperidol administration using the method of parallel bars. The fore and hind limbs of a rat were placed on parallel bars (walls) to ensure that the animal’s back was straight, and the time spent by the animal in an immobilized state was recorded. The general duration of catalepsy and the percentage of cataleptic animals in the group were evaluated.

[2] = test system: MPTP-lesioned C57BL/6 mice; assay: DA and DOPAC levels in midbrain and striatum by HPLC-ED after MPTP lesion; assay type: in vivo
Experimental: Neurochemical analyses via HPLC-ED were conducted as described before. Microdissected samples of the striatum (ST) and midbrain were homogenized in 300 and 400 µL of cold 0.6 M HClO4, respectively, using a motor-driven grinder (Z359971, Sigma-Aldrich, USA) and the homogenate was spun for 15 min at 12,000 rpm (+4 °C). The pellet was diluted in 1 mL of 0.1 M NaCl and used for protein quantitation by Bradford (Bio Rad, USA) according to the manufacturer’s protocol. The clear supernatant was diluted twice with pure water and used for assay of DA and […] (DOPAC) by HPLC on Luna C18(2) column (5 μm particle size, L × I.D. 75 × 4.6 mm, Phenomenex, Torrance, CA, USA) with electrochemical detection (750 mV, DECADE II™ Electrochemical Detector; Antec, The Netherlands). The standard mixes containing 1, 2, and 3 ng of DA and DOPAC were repeatedly assayed throughout the entire procedure and used to plot the calibration curves for each substance. The areas of peaks were estimated using LabSolution LG/GC software version 5.54 (Shimadzu Corporation, Japan) and calibrated against the calibrated curves for corresponding standards. The contents of DA and DOPAC were expressed nanogram (ng) per milligram (mg) of protein assayed by Bradford.

[3] = Pharmacokinetics in brain tissue after a single oral dose (HPLC-MS/MS); assay type: in vivo, CD1 IGS mice; conditions: single oral 10 mg/kg
Experimental: CD1 IGS mice received a single oral dose of PA96 in Tween 80 (10 mg/kg). Mice were sacrificed 5, 10, 30, 60, and 120 min after injection, and all brain samples were collected and placed into an Eppendorf microtube (2 mL). Samples were frozen with liquid nitrogen for subsequent preparation and HPLC-MS/MS analysis. A set of calibrators were prepared, followed by their preparation protocol, and analyzed. The calibration curve was built in the interval of 1–100 ng/g and used to calculate the PA96 concentration in the brain tissue samples.
A stock solution was prepared by dissolving approximately 10 mg of PA96 in a required amount of pure methanol to have the solution with a concentration of 1.0 mg/mL. The working solutions of PA96 with concentrations of 5, 7.5, 25, 50, 75, 250, and 300 ng/mL were prepared by diluting the stock solution with methanol. To prepare a calibrator, a free PA96 brain tissue (~50 mg) was weighed and transferred into an Eppendorf microtube (V = 1.5 mL), then the working solution of PA-96 was added. The mixture was homogenized (Minilys, Bertin Technologies, Montigny-leBretonneux, France) for 60 s at low speed. The calibrators were prepared on the day of the experiment. The working solution of IS in acetonitrile with a concentration of 1.0 mg/mL was used. All the solutions were stored at −18 °C. Before sample preparation, the solutions were brought to room temperature.
The exact amount (~50 mg) of the mouse brain tissue sample was transferred into a polypropylene tube (1.5 mL). For each portion, the solution of IS (1 µL per 1 mg of the brain sample) and pure acetonitrile (10 µL per 1 mg of the brain sample) were added, then all samples were homogenized for 4 min at medium speed. After the homogenization procedure, ~100 mg of the salt mixture (magnesium sulfate: sodium chloride: trisodium citrate: disodium citrate as 4:1:1:0.5) for extraction was added, followed by shaking for 30 min at 1400 rpm in an orbital shaker. The supernatant was separated from the homogenate by centrifugation for 10 min at 13,400 rpm. The obtained solution was further shaken with ~80 mg of the SPE mixture (magnesium sulfate:C18EC as 6:1 and acetonitrile) for 10 min at 1400 rpm and centrifuged for 10 min at 13,400 rpm. A total of 300 µL of the organic phase was placed into a fresh tube and evaporated to dryness in a vacuum. The residue containing the analyte and IS was dissolved in 150 μL of methanol, shaken for 10 min, transferred into a chromatographic vial, and analyzed by HPLC-MS/MS.
The LC-MS/MS analysis was performed using an LC-20AD Prominence chromatograph equipped with an autosampler thermostated at +10 °C (Shimadzu, Japan) and a 3200 QTRAP mass spectrometer equipped with an ESI source (AB SCIEX, USA). Separation was achieved on a ProntoSil-120-5-C18 AQ column (2.0 × 75 mm, 5 μm particles, (EcoNova, Novosibirsk, Russia)) thermostated at +35 °C. The mobile phase was composed of water containing 0.1% formic acid (eluent A) and methanol containing 0.1% formic acid (eluent B). The gradient elution program was as follows: 0 min-10% (B); 0.5 min-10% (B); 7 min-98% (B); 9 min-98% (B); the flow rate was 200 μL/min.
The mass spectrometer was operated using multiple reaction monitoring (MRM) in positive ion mode. Ionization was conducted by applying a voltage of 5500 V, and the source temperature was set at +350 °C. For the analyte and IS, the optimized source parameters, viz. CUR (curtain gas), GS1 (Gas 1), and GS2 (Gas 2) were set at 20 psi. The CAD (collisionally activated dissociation) gas was nitrogen, and the parameter was set as high. The parameters of PA96, viz. MRM transitions, declustering potentials (DP), collision energies (CE), and collision cell exit potentials (CXP) are presented in Table 3. The dwell time was 100 msec. Analyst 1.6.2 software (AB SCIEX, USA) was used for instrument control and data acquisition, and MultiQuant 2.1 software (AB SCIEX, USA) was used for quantification. […]

SMILES: C=C(C)[C@@H]1CC=C(C)[C@@H](Sc2nc[nH]n2)[C@@H]1O [PA96, (1R,2R,6S)-2-(1H-1,2,4-triazol-3-ylthio)-3-methyl-6-(prop-1-en-2-yl)cyclohex-3-enol]
- catalepsy time [1]: significantly decreased
- percentage of cataleptic animals [1]: significantly decreased
- MPTP-induced reduction in DA level in the midbrain [2]: tended to alleviate
- DA and DOPAC concentrations in ST or midbrain ([2]; 10 mg/kg): did not affect
- Kp ([3]; CD1 IGS, mouse, brain and whole blood, read-out: Kb,brain (brain-to-blood coefficient, AUCbrain/AUCblood)): 0.119 ± 0.01
- Cmax ([3]; CD1 IGS, mouse, brain): 125 ng/g
- Tmax ([3]; CD1 IGS, mouse, brain): 5 min
- half-life ([3]; CD1 IGS, mouse, brain): 18.8 ± 0.3 min
- MRT inf ([3]; CD1 IGS, mouse, brain, read-out: MRT0-inf_obs (converted)): 21.5 min
- concentration in blood higher than in brain tissue ([3]; at 5 min): approximately 4.5 times
- AUC0-inf_obs ([3]; brain): (2.03 ± 0.09) × 10^3 ng/g∗min
- AUC0-t ([3]; brain): (1.99 ± 0.09) × 10^3 ng/g∗min
- time at which the concentration in brain was close to the minimum value [3]: 2 h

From publication PMC9738927, “A Newly Identified Monoterpenoid-Based Small Molecule Able to Support the Survival of Primary Cultured Dopamine Neurons and Alleviate MPTP-Induced Toxicity In Vivo” (Molecules, 2022)
